{"source": "ChEMBL document CHEMBL3632532", "about": "“Beyond the affinity for protein kinase C: exploring 2-phenyl-3-hydroxypropyl pivalate analogues as C1 domain-targeting ligands” (Medchemcomm, 2015)", "key": {"[1]": {"target": "T1, Protein kinase C alpha type (Homo sapiens, UniProt P17252)", "experiment": "Displacement of [3H]PDBu from recombinant human PKCalpha C1 domain expressed in baculovirus infected insect Sf9 cells assessed as residual radiolabeled binding at 100 uM after 10 mins by liquid scintillation counting analysis relative to control"}, "[2]": {"target": "T2, Protein kinase C delta type (Homo sapiens, UniProt Q05655)", "experiment": "Displacement of [3H]PDBu from recombinant human PKCdelta C1 domain expressed in baculovirus infected insect Sf9 cells assessed as residual radiolabeled binding at 100 uM after 10 mins by liquid scintillation counting analysis relative to control"}, "[3]": {"target": "T1, Protein kinase C alpha type", "experiment": "Displacement of [3H]PDBu from recombinant human PKCalpha C1 domain expressed in baculovirus infected insect Sf9 cells after 10 mins by liquid scintillation counting analysis"}, "[4]": {"target": "T2, Protein kinase C delta type", "experiment": "Displacement of [3H]PDBu from recombinant human PKCdelta C1 domain expressed in baculovirus infected insect Sf9 cells after 10 mins by liquid scintillation counting analysis"}, "[5]": {"target": "T1, Protein kinase C alpha type", "experiment": "Displacement of [3H]PDBu from recombinant human PKCalpha C1 domain expressed in baculovirus infected insect Sf9 cells at 100 uM after 10 mins by liquid scintillation counting analysis relative to control"}, "[6]": {"target": "T2, Protein kinase C delta type", "experiment": "Displacement of [3H]PDBu from recombinant human PKCdelta C1 domain expressed in baculovirus infected insect Sf9 cells at 100 uM after 10 mins by liquid scintillation counting analysis relative to control"}}}
{"smiles": "CC(C)(C)C(=O)OCC(CO)c1ccc(OCc2ccccc2)cc1", "note": "(racemic) [listing 1 of 2 here]", "values": [{"measurement": "Activity", "setting": "[1]", "result": 41.6, "unit": "%"}, {"measurement": "Residual [3H]PDBu binding", "setting": "[2]", "result": 29.3, "unit": "%"}]}
{"smiles": "O=C(CC(CO)c1cccc(OCc2ccccc2)c1)OCc1ccccc1", "note": "(stereo not drawn)", "values": [{"measurement": "Activity", "setting": "[1]", "result": 67.4, "unit": "%"}, {"measurement": "Residual [3H]PDBu binding", "setting": "[2]", "result": 52.5, "unit": "%"}, {"measurement": "inhibition", "setting": "[3]", "result": "Dose-dependent effect"}, {"measurement": "inhibition", "setting": "[4]", "result": "Dose-dependent effect"}]}
{"smiles": "CCN(CC)C(=O)CC(CO)c1ccc(OCc2ccccc2)cc1", "note": "(stereo not drawn)", "values": [{"measurement": "Activity", "setting": "[1]", "result": 100, "unit": "%"}]}
{"smiles": "O=C(CC(CO)c1ccc(-c2ccccc2)cc1)OCc1ccccc1", "note": "(stereo not drawn)", "values": [{"measurement": "Activity", "setting": "[1]", "result": 64.4, "unit": "%"}, {"measurement": "Residual [3H]PDBu binding", "setting": "[2]", "result": 56.7, "unit": "%"}, {"measurement": "inhibition", "setting": "[3]", "result": "Dose-dependent effect"}, {"measurement": "inhibition", "setting": "[4]", "result": "Dose-dependent effect"}]}
{"smiles": "O=C(CC(CO)c1ccc(-c2ccccc2)cc1)N1CCOCC1", "note": "(stereo not drawn)", "values": [{"measurement": "Activity", "setting": "[1]", "result": 86.6, "unit": "%"}]}
{"smiles": "CN(Cc1ccccc1)C(=O)CC(CO)c1ccc(OCc2ccccc2)cc1", "note": "(stereo not drawn)", "values": [{"measurement": "Activity", "setting": "[1]", "result": 80.6, "unit": "%"}]}
{"smiles": "CN(Cc1ccccc1)C(=O)CC(CO)c1cccc(OCc2ccccc2)c1", "note": "(stereo not drawn)", "values": [{"measurement": "Activity", "setting": "[1]", "result": 72.4, "unit": "%"}]}
{"smiles": "CC(C)(C)C(=O)OCC(CO)c1ccc(OCc2ccccc2)cc1", "note": "(racemic) [listing 2 of 2 here]", "values": [{"measurement": "IC50", "setting": "[3]", "result": 37.5, "unit": "µM"}, {"measurement": "IC50", "setting": "[4]", "result": 33.2, "unit": "µM"}]}
{"smiles": "O=C(CC(CO)c1ccc(OCc2ccccc2)cc1)OCc1ccccc1", "note": "(stereo not drawn)", "values": [{"measurement": "Activity", "setting": "[1]", "result": 73.9, "unit": "%"}, {"measurement": "Residual [3H]PDBu binding", "setting": "[2]", "result": 61.6, "unit": "%"}, {"measurement": "inhibition", "setting": "[3]", "result": "Dose-dependent effect"}, {"measurement": "inhibition", "setting": "[4]", "result": "Dose-dependent effect"}]}
{"smiles": "CC(C)(C)C(=O)OCC(CO)c1ccc(OCc2ccccc2)cc1", "note": "(single isomer, unassigned)", "values": [{"measurement": "inhibition", "setting": "[5]", "result": 36.3, "unit": "%"}, {"measurement": "inhibition", "setting": "[6]", "result": 36.3, "unit": "%"}]}
{"smiles": "CCN(CC)C(=O)CC(CO)c1cccc(OCc2ccccc2)c1", "note": "(stereo not drawn)", "values": [{"measurement": "Activity", "setting": "[1]", "result": 90, "unit": "%"}]}
{"smiles": "O=C(CC(CO)c1cccc(OCc2ccccc2)c1)N1CCOCC1", "note": "(stereo not drawn)", "values": [{"measurement": "Activity", "setting": "[1]", "result": 99.7, "unit": "%"}]}
{"smiles": "O=C(Cc1ccccc1)OCC(CO)c1ccc(OCc2ccccc2)cc1", "note": "(racemic) [listing 1 of 2 here]", "values": [{"measurement": "Activity", "setting": "[1]", "result": 51.3, "unit": "%"}, {"measurement": "Residual [3H]PDBu binding", "setting": "[2]", "result": 34.8, "unit": "%"}, {"measurement": "inhibition", "setting": "[3]", "result": "Dose-dependent effect"}]}
{"smiles": "O=C(CC(CO)c1ccc(OCc2ccccc2)cc1)N1CCOCC1", "note": "(stereo not drawn)", "values": [{"measurement": "Activity", "setting": "[1]", "result": 107, "unit": "%"}]}
{"smiles": "CN(Cc1ccccc1)C(=O)CC(CO)c1ccc(-c2ccccc2)cc1", "note": "(stereo not drawn)", "values": [{"measurement": "Activity", "setting": "[1]", "result": 76.1, "unit": "%"}]}
{"smiles": "O=C(Cc1ccccc1)OCC(CO)c1ccc(OCc2ccccc2)cc1", "note": "(single isomer, unassigned; (-))", "values": [{"measurement": "inhibition", "setting": "[5]", "result": 26.3, "unit": "%"}, {"measurement": "inhibition", "setting": "[6]", "result": 26.3, "unit": "%"}]}
{"smiles": "O=C(Cc1ccccc1)OCC(CO)c1ccc(OCc2ccccc2)cc1", "note": "(racemic) [listing 2 of 2 here]", "values": [{"measurement": "IC50", "setting": "[3]", "result": 73.9, "unit": "µM"}, {"measurement": "IC50", "setting": "[4]", "result": 39.9, "unit": "µM"}]}
{"smiles": "CC(C)(C)C(=O)OCC(CO)c1ccc(OCc2ccccc2)cc1", "note": "(single isomer, unassigned; (+))", "values": [{"measurement": "inhibition", "setting": "[5]", "result": 34.6, "unit": "%"}, {"measurement": "inhibition", "setting": "[6]", "result": 34.6, "unit": "%"}]}
{"smiles": "O=C(Cc1ccccc1)OCC(CO)c1ccc(OCc2ccccc2)cc1", "note": "(single isomer, unassigned)", "values": [{"measurement": "inhibition", "setting": "[5]", "result": 27.3, "unit": "%"}, {"measurement": "inhibition", "setting": "[6]", "result": 27.3, "unit": "%"}]}
{"smiles": "CCN(CC)C(=O)CC(CO)c1ccc(-c2ccccc2)cc1", "note": "(stereo not drawn)", "values": [{"measurement": "Activity", "setting": "[1]", "result": 84.4, "unit": "%"}]}
